Test results reported in PMC7835349 (Communications Biology, 2021).
Several values for one entry are separate records, joined by “and”; a condition that tells them apart may be missing. Identical values can stand only once.

Columns and labels:
telemetered dogs = assay: Conscious dog telemetry (QRS amplitude and other cardiovascular parameters, tolerability)
RS4;11 xenograft = assay: RS4;11 mouse xenograft efficacy (tumour volume); type: in vivo, C.B-17 SCID mouse; set-up: key to tumour volume, individual animals: tumour volume in mm³, length × width²/0.52; settings: for tumour volume, individual animals: 20 mg/kg AZD4320
Experimental: Female C.B.−17 SCID mice were purchased from Charles River Laboratories. Mice were 5–8 weeks old at the time of tumour implantation. All xenograft studies were conducted at our Association for the Assessment and Accreditation of Laboratory Animal Care accredited facility in Waltham, MA in accordance with ethical regulations described in the guidelines established by the internal Institutional Animal Care and Use Committee. The dendrimer conjugates were formulated in citrate/phosphate buffer pH 5.0, diluted 1:10 with 5% glucose containing 1% w/v Kolliphor HS15, and AZD4320 was formulated in 30% HP-β-CD and dosed as a weekly intravenous (IV) administration at a volume of 5 ml/kg at the indicated doses. Five million RS4;11, five million SUDHL-4 or five million OCI-LY-10 cells were injected subcutaneously in the right flank of mice in a volume of 0.1 ml. Tumour volumes (measured by caliper), animal body weight, and tumor condition were recorded twice weekly for the duration of the study. The tumour volume was calculated (taking length to be the longest diameter across the tumour and width to be the corresponding perpendicular diameter) using the formula: length (mm) x width (mm)^2/0.52. For efficacy studies, mice were randomized based on tumour volumes using stratified sampling and enrolled into control and treatment groups. Tumour growth inhibition from the start of treatment was quantified by measuring the difference in tumour volume between control and treated groups. Survival analysis was evaluated using Mantel-Cox test. Tumours were also taken for bioanalysis.

[1] = dog, AZD0466 10 mg/kg (3 mg/kg AZD4320 equivalent), 1 h infusion
[2] = dog, AZD0466 30 mg/kg (9 mg/kg AZD4320 equivalent), 1 h infusion
[3] = dog, AZD0466 60 mg/kg (18 mg/kg AZD4320 equivalent), 1 h infusion

Substance: AZD4320-MIDA-PEG2100 [AZD0466]
- other cardiovascular effects (telemetered dogs; conscious telemetered dogs, 1-hour infusion): A small increase in diastolic BP, a transient and delayed-onset small increase in heart rate, a decrease in dP/dt+ (an index of cardiac contractility) and a decrease in PR interval
- effect on QRS amplitude (telemetered dogs; conscious telemetered dogs, 1-hour infusion, 30 and 60 mg/kg): dose-dependent decrease in QRS amplitude that returned to baseline
- NOEL (no observed effect level), cardiovascular system (telemetered dogs; dog): 10 mg/kg
- improvement in cardiovascular tolerability based on dose vs AZD4320 (telemetered dogs; dog): 18 fold
- effect on QRS amplitude (telemetered dogs; dog, 10 mg/kg AZD0466 (equivalent to 3 mg/kg AZD4320)): no effect on QRS amplitude
- Effects (telemetered dogs; [1]): No effect level
- Tolerated? (telemetered dogs; [1]): Yes
- Tolerated? (telemetered dogs; [2]): Yes
- ↓QRS amplitude (% decrease) (telemetered dogs; [2]): 30%
- Effects other than QRS amplitude (telemetered dogs; [3]): ↑DBP, ↑HR, ↓dP/dt+, ↓PR interval, ↓LVEDP
- Tolerated? (telemetered dogs; [3]): Yes
- ↓QRS amplitude (% decrease) (telemetered dogs; [3]): 33%
- tumour volume, individual animals (RS4;11 xenograft; Day 38, listed as SPL-8977, 20 mg/kg, in mm³ (unit assumed)): 600 and 609 and 679 and 641
- tumour volume, individual animals (RS4;11 xenograft; Day 41, listed as SPL-8977, 20 mg/kg, in mm³ (unit assumed)): 419 and 480 and 364 and 544
- tumour volume, individual animals (RS4;11 xenograft; Day 45, listed as SPL-8977, 20 mg/kg): 0 (2×) and 133 and 130
- tumour volume, individual animals (RS4;11 xenograft; Day 48, listed as SPL-8977, 20 mg/kg): 0 (3×) and 75
- tumour volume, individual animals (RS4;11 xenograft; Day 52, listed as SPL-8977, 20 mg/kg): 0 (3×) and 134
- tumour volume, individual animals (RS4;11 xenograft; Day 55, in mm³ (unit assumed)): 0
- tumour volume, individual animals (RS4;11 xenograft; Day 59, listed as SPL-8977, 20 mg/kg): 0 (2×) and 122 and 66
- tumour volume, individual animals (RS4;11 xenograft; Day 63, listed as SPL-8977, 20 mg/kg, in mm³ (unit assumed)): 275 and 244 and 0 and 343
- tumour volume, individual animals (RS4;11 xenograft; Day 66, listed as SPL-8977, 20 mg/kg, in mm³ (unit assumed)): 255 and 188 and 196 and 333
- tumour volume, individual animals (RS4;11 xenograft; Day 69, listed as SPL-8977, 20 mg/kg, in mm³ (unit assumed)): 384 and 259 and 193 and 637
- tumour volume, individual animals (RS4;11 xenograft; Day 73, listed as SPL-8977, 20 mg/kg, in mm³ (unit assumed)): 574 and 450 and 240 and 837
- AZD4320-equivalent dose of dendrimer conjugate needed to match efficacy of AZD4320 (RS4;11 xenograft; RS4;11): approximately twice the dose
- magnitude of in vivo efficacy (RS4;11 xenograft; RS4;11, 20 mg/kg AZD4320 equivalent dose vs SPL-8932 20 mg/kg equivalent and AZD4320 10 mg/kg): comparable to that of SPL-8932 and AZD4320
- Tumour volume, Geo Mean (RS4;11 xenograft; RS4;11, AZD0466 10 mg/kg (3mg/kg AZD4320), day 41): 492.913
- Tumour volume, Geo Mean (RS4;11 xenograft; RS4;11, AZD0466 10 mg/kg (3mg/kg AZD4320), day 44): 317.328
- Tumour volume, Geo Mean (RS4;11 xenograft; RS4;11, AZD0466 10 mg/kg (3mg/kg AZD4320), day 48): 5.078
- Tumour volume, Geo Mean (RS4;11 xenograft; RS4;11, AZD0466 10 mg/kg (3mg/kg AZD4320), day 51): 2.414
- Tumour volume, Geo Mean (RS4;11 xenograft; RS4;11, AZD0466 10 mg/kg (3mg/kg AZD4320), day 55): 1
- Tumour volume, Geo Mean (RS4;11 xenograft; RS4;11, AZD0466 10 mg/kg (3mg/kg AZD4320), day 58): 49.5834
- Tumour volume, Geo Mean (RS4;11 xenograft; RS4;11, AZD0466 10 mg/kg (3mg/kg AZD4320), day 63): 177.592
- Tumour volume, Geo Mean (RS4;11 xenograft; RS4;11, AZD0466 10 mg/kg (3mg/kg AZD4320), day 66): 258.58
- Tumour volume, Geo Mean (RS4;11 xenograft; RS4;11, AZD0466 10 mg/kg (3mg/kg AZD4320), day 70): 353.377
- Tumour volume, Geo Mean (RS4;11 xenograft; RS4;11, AZD0466 10 mg/kg (3mg/kg AZD4320), day 73): 450.085
- Tumour volume, Geo Mean (RS4;11 xenograft; RS4;11, AZD0466 10 mg/kg (3mg/kg AZD4320), day 77): 770.449
- Tumour volume, Geo Mean (RS4;11 xenograft; RS4;11, AZD0466 10 mg/kg (3mg/kg AZD4320), day 80): 703.796
- Tumour volume, Geo Mean (RS4;11 xenograft; RS4;11, AZD0466 10 mg/kg (3mg/kg AZD4320), day 83): 919.497
- Tumour volume, Geo Mean (RS4;11 xenograft; RS4;11, AZD0466 34 mg/kg (10mg/kg AZD4320), day 41): 491.258
- Tumour volume, Geo Mean (RS4;11 xenograft; RS4;11, AZD0466 34 mg/kg (10mg/kg AZD4320), day 44): 242.554
- Tumour volume, Geo Mean (RS4;11 xenograft; RS4;11, AZD0466 34 mg/kg (10mg/kg AZD4320), day 48): 1.95
- Tumour volume, Geo Mean (RS4;11 xenograft; RS4;11, AZD0466 34 mg/kg (10mg/kg AZD4320), day 51): 1
- Tumour volume, Geo Mean (RS4;11 xenograft; RS4;11, AZD0466 34 mg/kg (10mg/kg AZD4320), day 55): 1
- Tumour volume, Geo Mean (RS4;11 xenograft; RS4;11, AZD0466 34 mg/kg (10mg/kg AZD4320), day 58): 1
- Tumour volume, Geo Mean (RS4;11 xenograft; RS4;11, AZD0466 34 mg/kg (10mg/kg AZD4320), day 63): 24.9155
- Tumour volume, Geo Mean (RS4;11 xenograft; RS4;11, AZD0466 34 mg/kg (10mg/kg AZD4320), day 66): 88.4785
- Tumour volume, Geo Mean (RS4;11 xenograft; RS4;11, AZD0466 34 mg/kg (10mg/kg AZD4320), day 70): 55.1235
- Tumour volume, Geo Mean (RS4;11 xenograft; RS4;11, AZD0466 34 mg/kg (10mg/kg AZD4320), day 73): 52.3606
- Tumour volume, Geo Mean (RS4;11 xenograft; RS4;11, AZD0466 34 mg/kg (10mg/kg AZD4320), day 77): 71.4432
- Tumour volume, Geo Mean (RS4;11 xenograft; RS4;11, AZD0466 34 mg/kg (10mg/kg AZD4320), day 80): 194.327
- Tumour volume, Geo Mean (RS4;11 xenograft; RS4;11, AZD0466 34 mg/kg (10mg/kg AZD4320), day 83): 206.49
- Tumour volume, Geo Mean (RS4;11 xenograft; RS4;11, AZD0466 103 mg/kg (30mg/kg AZD4320), day 41): 495.68
- Tumour volume, Geo Mean (RS4;11 xenograft; RS4;11, AZD0466 103 mg/kg (30mg/kg AZD4320), day 44): 271.066
- Tumour volume, Geo Mean (RS4;11 xenograft; RS4;11, AZD0466 103 mg/kg (30mg/kg AZD4320), day 48): 1.967
- Tumour volume, Geo Mean (RS4;11 xenograft; RS4;11, AZD0466 103 mg/kg (30mg/kg AZD4320), day 51): 1
- Tumour volume, Geo Mean (RS4;11 xenograft; RS4;11, AZD0466 103 mg/kg (30mg/kg AZD4320), day 55): 1
- Tumour volume, Geo Mean (RS4;11 xenograft; RS4;11, AZD0466 103 mg/kg (30mg/kg AZD4320), day 58): 1
- Tumour volume, Geo Mean (RS4;11 xenograft; RS4;11, AZD0466 103 mg/kg (30mg/kg AZD4320), day 63): 5.6048
- Tumour volume, Geo Mean (RS4;11 xenograft; RS4;11, AZD0466 103 mg/kg (30mg/kg AZD4320), day 66): 13.7221
- Tumour volume, Geo Mean (RS4;11 xenograft; RS4;11, AZD0466 103 mg/kg (30mg/kg AZD4320), day 70): 40.3244
- Tumour volume, Geo Mean (RS4;11 xenograft; RS4;11, AZD0466 103 mg/kg (30mg/kg AZD4320), day 73): 44.9682
- Tumour volume, Geo Mean (RS4;11 xenograft; RS4;11, AZD0466 103 mg/kg (30mg/kg AZD4320), day 77): 64.9706
- Tumour volume, Geo Mean (RS4;11 xenograft; RS4;11, AZD0466 103 mg/kg (30mg/kg AZD4320), day 80): 64.3873
- Tumour volume, Geo Mean (RS4;11 xenograft; RS4;11, AZD0466 103 mg/kg (30mg/kg AZD4320), day 83): 200.25
- animals remaining tumour free for up to 6 weeks (RS4;11 xenograft; RS4;11, highest dose (30 mg/kg AZD4320-equivalent)): 2/6
- regression during treatment period (RS4;11 xenograft; RS4;11, weekly IV, 10 mg/kg and 30 mg/kg AZD4320-equivalent): Complete tumour regression
- tumour regression (RS4;11 xenograft; RS4;11, weekly IV, 3, 10 and 30 mg/kg AZD4320-equivalent dose, each dose group): tumour regression in all 6 mice
